Like-named read-outs stand apart in the source and are kept apart here.

The target of data set [1] is T1, human TLR2 (Homo sapiens, UniProt O60603).
T1 construct: host or cells: HEK 293T
The experiment in a line: NF-κB activation in HEK 293T cells stably transfected with human TLR2. The format is cell-based. The following applies: 103/104 at 0.1, 1 and 10 μg mL−1; Pam3CysSK4 1 μg mL−1; 4 h. The protocol:
(§1) Induction of NF-κB activation was determined in triplicate cultures of HEK 293T cells stably transfected with human or mouse (a) TLR4/MD2/CD14 and (b) TLR2 and transiently transfected with pELAM-Luc and pRL-TK plasmids. Forty-four h post-transfection, cells were treated with (B) E. coli LPS (10 ng mL^−1), (C) Pam3CysSK4 (1 μg mL^−1), (D, E and F) 103 (0.1, 1 and 10 μg mL^−1, respectively), (G, H and I) 104 (0.1, 1 and 10 μg mL^−1, respectively) or (A) were left untreated (control). Forty-eight h post-transfection, NF-κB activation was determined by firefly luciferase activity relative to Renilla luciferase activity. n.a. indicates not analyzed.
(§2) To examine the ability of the synthetic compounds to induce activation of NF-κB, HEK 293T cells were employed that were stably transfected with various immune receptors and transiently transfected with a plasmid containing the reporter gene pELAM-Luc (NF-κB-dependent firefly luciferase reporter vector) and a plasmid containing the control gene pRL-TK (Renilla luciferase control reporter vector) (FIG. 11). […] Although compound 104 is a weak activator of mouse TLR4, it could not induce the secretion of cytokines.
(§3) The day before transfection, HEK 293T wild type cells and HEK 293T cells stably transfected with human and murine TLR4/MD2/CD14 and human and murine TLR2 were plated in 96-well tissue culture plates (16,000 cells/well). The next day, cells were transiently transfected using PolyFect Transfection Reagent (Qiagen) with expression plasmids pELAM-Luc (NF-κB-dependent firefly luciferase reporter plasmid, 50 ng/well) (Chow et al., J. Biol. Chem., 1999, 274, 10689-10692) and pRL-TK (Renilla luciferase control reporter vector, 1 ng/well; Promega) as an internal control to normalize experimental variations. […] The luciferase activity was measured using the Dual-Luciferase Reporter Assay System (Promega) according to the manufacturer's instructions and a combination luminometer/fluorometer microplate reader (BMG Labtech). […]

In data set [2] the target is T2, mouse TLR2 (Mus musculus, UniProt Q9QUN7).
T2 construct: host or cells: HEK 293T
T2 sequence (Q9QUN7 25-784): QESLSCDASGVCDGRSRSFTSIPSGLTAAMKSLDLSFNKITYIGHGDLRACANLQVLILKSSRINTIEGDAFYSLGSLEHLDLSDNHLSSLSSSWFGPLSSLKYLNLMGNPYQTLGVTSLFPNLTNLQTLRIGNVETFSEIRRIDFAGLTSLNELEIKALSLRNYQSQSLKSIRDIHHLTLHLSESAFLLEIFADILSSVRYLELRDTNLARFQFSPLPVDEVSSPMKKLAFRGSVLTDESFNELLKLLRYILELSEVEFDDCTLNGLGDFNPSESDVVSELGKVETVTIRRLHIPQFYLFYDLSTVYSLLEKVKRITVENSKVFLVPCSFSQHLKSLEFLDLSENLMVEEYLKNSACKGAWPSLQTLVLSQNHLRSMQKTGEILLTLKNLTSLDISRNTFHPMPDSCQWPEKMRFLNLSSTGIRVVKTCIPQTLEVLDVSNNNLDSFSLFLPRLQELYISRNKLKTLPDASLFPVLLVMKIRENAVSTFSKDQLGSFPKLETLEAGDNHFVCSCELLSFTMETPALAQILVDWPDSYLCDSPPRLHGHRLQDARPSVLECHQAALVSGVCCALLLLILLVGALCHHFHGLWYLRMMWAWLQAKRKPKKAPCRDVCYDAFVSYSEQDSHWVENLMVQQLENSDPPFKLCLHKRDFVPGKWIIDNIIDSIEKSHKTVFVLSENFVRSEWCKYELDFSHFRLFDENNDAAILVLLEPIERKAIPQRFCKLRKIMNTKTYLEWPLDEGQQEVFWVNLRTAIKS
Nature of the data set: NF-κB activation in HEK 293T cells stably transfected with mouse TLR2. It counts as cell-based. The following applies: 103/104 at 0.1, 1 and 10 μg mL−1; Pam3CysSK4 1 μg mL−1; 4 h. The protocol: as §1, §2, §3

Data set [3] has as its target T3, human TLR4/MD2/CD14 (Homo sapiens, UniProt O00206+Q9Y6Y9).
T3 construct: host or cells: HEK 293T
Nature of the data set: NF-κB activation in HEK 293T cells stably transfected with human TLR4/MD2/CD14. It counts as cell-based. The note with it: 103/104 at 0.1, 1 and 10 μg mL−1; E. coli LPS 10 ng mL−1; 4 h. The procedure: as §1, with “analyzed. […]” for “analyzed.”
The day before transfection, HEK 293T wild type cells and HEK 293T cells stably transfected with human and murine TLR4/MD2/CD14 and human and murine TLR2 were plated in 96-well tissue culture plates (16,000 cells/well). […] The luciferase activity was measured using the Dual-Luciferase Reporter Assay System (Promega) according to the manufacturer's instructions and a combination luminometer/fluorometer microplate reader (BMG Labtech). […]

For data set [4], the system named is MM6 cells. The experiment in a line: Antagonism of E. coli LPS-induced TNF-α production in human monocytic MM6 cells. The following applies: 5.5 h, read-out: IC50 (concentration producing 50% inhibition) of TNF production induced by E. coli LPS. It counts as cell-based. The protocol:
TNF-α concentrations were measured after preincubation of MM6 cells with increasing concentrations of 103 or 104 as indicated for 1 h at 37° C., followed by 5.5 h of incubation with E. coli LPS (1 ng mL^−1). Results are expressed as percentage of cytokine concentration of control cells, which are incubated only with E. coli LPS.
Compounds that lack proinflammatory properties may still interact with relevant receptors (TLR4/MD2/CD14), and thereby inhibit TNF-α production induced by E. coli LPS. […]
(§4) On the day of the exposure assay differentiated MM6 cells were harvested by centrifugation and suspended (10^6 cells mL^−1) in tissue culture tubes and RAW 264.7 γNO(−) cells were plated as 2×10^5 cells/well in 96-well tissue culture plates (Nunc). […] Concentrations of human TNF-α protein in culture supernatants were determined by a solid phase sandwich ELISA. […] After the reaction was stopped by adding peroxidase stop solution (Kirkegaard & Perry Laboratories), the absorbance was measured at 405 nm using a microplate reader (BMG Labtech). Cytokine DuoSet ELISA Development Kits (R&D Systems) were used for the cytokine quantification of mouse TNF-α, mouse IL-6, mouse IP-10 and mouse IL-1β according to the manufacturer's instructions. The absorbance was measured at 450 nm with wavelength correction set to 540 nm. Concentrations of mouse IFN-β in culture supernatants were determined as follows. […]

Data set [5] has as its system RAW cells. Nature of the data set: Antagonism of E. coli LPS-induced TNF-α production in mouse macrophages (RAW cells). It counts as cell-based. The note with it: mouse cell line, E. coli LPS (10 ng/mL), 5.5 h. The protocol: Compounds that lack proinflammatory properties may still interact with relevant receptors (TLR4/MD2/CD14), and thereby inhibit TNF-α production induced by E. coli LPS. Thus, the human monocytic cells and mouse macrophages (MM6 and RAW cells) were exposed to a combination of E. coli LPS (10 ng/mL) and a wide range of concentrations of lipid As 103 and 104 and, after an incubation time of 5.5 h, the supernatant was examined for human or mouse TNF-a.
as §4

The test system of data set [6] is MM6 cells. Nature of the data set: Cell viability of MM6 cells by trypan blue exclusion. It counts as cell-based, human. The note with it: 5.5 h treatment.

T3 sequence (O00206 24-839): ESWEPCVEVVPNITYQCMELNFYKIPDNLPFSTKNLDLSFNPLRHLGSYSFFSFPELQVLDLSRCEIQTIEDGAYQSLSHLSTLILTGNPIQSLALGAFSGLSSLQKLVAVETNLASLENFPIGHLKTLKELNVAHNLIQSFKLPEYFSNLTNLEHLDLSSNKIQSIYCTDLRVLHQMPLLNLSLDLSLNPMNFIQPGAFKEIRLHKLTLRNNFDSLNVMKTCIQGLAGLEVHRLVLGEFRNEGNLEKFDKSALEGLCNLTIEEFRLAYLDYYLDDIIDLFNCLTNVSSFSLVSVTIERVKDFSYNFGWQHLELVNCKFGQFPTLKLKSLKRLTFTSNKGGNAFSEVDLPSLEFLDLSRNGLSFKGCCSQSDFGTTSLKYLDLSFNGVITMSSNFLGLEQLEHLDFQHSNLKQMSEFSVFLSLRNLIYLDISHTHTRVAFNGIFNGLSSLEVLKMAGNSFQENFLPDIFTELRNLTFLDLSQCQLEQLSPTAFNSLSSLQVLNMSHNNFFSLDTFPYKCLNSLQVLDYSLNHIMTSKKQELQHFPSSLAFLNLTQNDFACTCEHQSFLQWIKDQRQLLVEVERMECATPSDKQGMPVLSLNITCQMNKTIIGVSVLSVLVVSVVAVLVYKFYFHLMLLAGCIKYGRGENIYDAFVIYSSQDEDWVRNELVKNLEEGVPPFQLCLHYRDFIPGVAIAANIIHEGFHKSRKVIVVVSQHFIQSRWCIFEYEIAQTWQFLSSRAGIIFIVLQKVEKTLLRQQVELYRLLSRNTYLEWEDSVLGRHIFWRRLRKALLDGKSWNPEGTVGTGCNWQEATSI
T3 sequence (Q9Y6Y9 19-160): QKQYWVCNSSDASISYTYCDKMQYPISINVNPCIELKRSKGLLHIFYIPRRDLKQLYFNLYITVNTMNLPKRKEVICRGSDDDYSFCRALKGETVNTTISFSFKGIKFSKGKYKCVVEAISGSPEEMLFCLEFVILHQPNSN
T1 sequence (O60603 21-784): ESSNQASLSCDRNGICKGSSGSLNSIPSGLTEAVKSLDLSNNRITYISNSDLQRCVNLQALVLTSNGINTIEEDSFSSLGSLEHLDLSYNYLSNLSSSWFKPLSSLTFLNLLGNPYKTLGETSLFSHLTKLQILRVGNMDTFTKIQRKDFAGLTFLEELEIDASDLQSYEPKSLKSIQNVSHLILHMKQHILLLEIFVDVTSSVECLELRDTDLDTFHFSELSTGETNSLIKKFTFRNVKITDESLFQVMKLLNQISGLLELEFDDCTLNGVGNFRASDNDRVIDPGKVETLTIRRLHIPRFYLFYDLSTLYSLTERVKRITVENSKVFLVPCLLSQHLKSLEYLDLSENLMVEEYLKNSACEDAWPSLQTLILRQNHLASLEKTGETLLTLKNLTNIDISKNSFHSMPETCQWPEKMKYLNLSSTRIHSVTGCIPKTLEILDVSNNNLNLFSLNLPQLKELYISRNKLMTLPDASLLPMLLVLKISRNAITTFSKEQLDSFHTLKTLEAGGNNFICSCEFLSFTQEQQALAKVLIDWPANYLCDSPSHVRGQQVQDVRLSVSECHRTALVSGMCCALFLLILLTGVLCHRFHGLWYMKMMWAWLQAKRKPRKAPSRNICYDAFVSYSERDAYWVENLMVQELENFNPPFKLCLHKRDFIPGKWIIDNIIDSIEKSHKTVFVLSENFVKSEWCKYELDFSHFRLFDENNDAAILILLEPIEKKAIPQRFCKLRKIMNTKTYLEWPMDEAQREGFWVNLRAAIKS

`CCCCCCCCCCCCCCCC(=O)O[C@H](CCCCCCCCCCCC(C)C)CC(=O)N[C@H]1[C@H](OC[C@H]2O[C@H](OP(=O)(O)O)[C@H](NC(=O)C[C@H](O)CCCCCCCCCCCC(C)C)[C@@H](O)[C@@H]2O)O[C@H](CO)[C@@H](O)[C@@H]1ONC(=O)C[C@H](O)CCCCCCCCCC(C)C` [Compound 104, 6-O-{2-Deoxy-2-[(R)-3-hexadecanoyloxy-15-methyl-hexadecanoylamino]-3-O—[(R)-3-hydroxy-13-methyl-tetradecanoylamino]-β-D-glucopyranosyl}-2-deoxy-2-[(R)-3-hydroxy-15-methyl-hexadecanoylamino]-α-D-glucopyranose 1-phosphate]: in data set [1], the “NF-κB activation, human TLR2” value is reported as “No activation of NF-κB”. Also, the “NF-κB activation, mouse TLR2” value in data set [2] is reported as “No activation of NF-κB”. Further, in data set [3], the “NF-κB activation, human TLR4/MD2/CD14” value is “No activation of NF-κB”. Also, the IC50 in data set [4] (Homo sapiens) stood at 3.2 µM. Further, the “inhibition of TNF-α production induced by E. coli LPS” value in data set [5] is given as “marginal inhibition”. Further, the “cell viability, cellular exclusion of trypan blue” value in data set [6] is listed as “did not affect cell viability”.
As for `CCCCCCCCCCCCCCCC(=O)O[C@H](CCCCCCCCCCCC(C)C)CC(=O)N[C@H]1[C@H](OC[C@H]2O[C@H](OP(=O)(O)O)[C@H](NC(=O)C[C@H](O)CCCCCCCCCCCC(C)C)[C@@H](OC(=O)C[C@H](O)CCCCCCCCCCCCC)[C@@H]2O)O[C@H](CO)[C@@H](O)[C@@H]1O` [Compound 103, 6-O-{2-Deoxy-2-[(R)-3-hexadecanoyloxy-15-methyl-hexadecanoylamino]-β-D-glucopyranosyl}-3-O—[(R)-3-hydroxy-hexadecanoyl]-2-deoxy-2-[(R)-3-hydroxy-15-methyl-hexadecanoylamino]-α-D-glucopyranose 1-phosphate], the “NF-κB activation, human TLR2” value in data set [1] is reported as “No activation of NF-κB”. Moreover, the “NF-κB activation, mouse TLR2” value in data set [2] is “No activation of NF-κB”. The “NF-κB activation, human TLR4/MD2/CD14” value in data set [3] is “No activation of NF-κB”. In addition, the IC50 in data set [4] (human MM6 cells, E. coli LPS (10 ng/mL)) came to 0.16 µM. The “inhibition of TNF-α production induced by E. coli LPS” value in data set [5] was “marginal inhibition”. For the same molecule, in data set [6], the “cell viability, cellular exclusion of trypan blue” value was “did not affect cell viability”.

For the origin of these results see US9309276B2, “Synthetic lipid A derivative” (University of Georgia Research Foundation, Inc., priority 2007, dated 2016).
